Columns and labels:
Format in all cases: in vivo
[1] = tested on: horseweed (Erigeron canadensis); assay: Test A postemergence application, visual injury rating 0-100
In short: (§1)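 Scale 0–100 (no effect to complete control), visual, versus untreated controls, read 10 days after application. Application: preemergence directed spray onto seeded loam–sand soil, or postemergence to young plants; formulation in non-phytotoxic solvent with surfactant.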

[2] = tested on: oat, wild (wild oat, Avena fatua); assay: as above
In short: as §1

corn (Zea mays) [3] = assay: as above
In short: as §1

[4] = tested on: barnyardgrass (Echinochloa crus-galli); assay: as above
In short: as §1

[5] = tested on: blackgrass (Alopecurus myosuroides); assay: as above
In short: as §1

[6] = tested on: green foxtail (Setaria viridis); assay: as above
In short: as §1

soybean (Glycine max) [7] = assay: as above
In short: as §1

[8] = tested on: galium (catchweed bedstraw, Galium aparine); assay: as above
In short: as §1

[9] = tested on: wheat (Triticum aestivum); assay: as above
In short: as §1

kochia (Bassia scoparia) [10] = assay: as above
In short: as §1

[11] = tested on: ragweed (common ragweed, Ambrosia artemisiifolia); assay: as above
In short: as §1

[12] = tested on: ryegrass, Italian (italian ryegrass, Lolium multiflorum); assay: as above
In short: as §1

[13] = tested on: palmer (palmer amaranth, palmer pigweed, Amaranthus palmeri); assay: as above
In short: as §1

[14] = tested on: ducksalad (Heteranthera limosa); assay: Test B flooded paddy test, visual plant response rating 0-100; conditions: 250 g ai/ha, Flood, applied to paddy water, evaluated after 13 days
In short: (§2)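 Compounds applied to standing paddy water (3 cm above soil, maintained for the test duration) on 2-leaf-stage plants; visual rating vs controls at 13 days, greenhouse.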

[15] = tested on: sedge, umbrella (small-flower umbrella sedge, Cyperus difformis); assay: as above; conditions: 250 g ai/ha, Flood, applied to paddy water, evaluated after 13 days
In short: as §2

rice (Oryza sativa) = assay: as above; conditions: 250 g ai/ha, Flood, applied to paddy water, evaluated after 13 days
In short: as §2

[16] = tested on: barnyardgrass (Echinochloa crusgalli); assay: as above; conditions: 250 g ai/ha, Flood, applied to paddy water, evaluated after 13 days
In short: as §2

[17] = tested on: oat, wild (wild oat, Avena fatua); assay: Test A preemergence soil spray, visual injury rating 0-100; conditions: 10 days
In short: as §1

corn (Zea mays) [18] = assay: as above; conditions: 10 days
In short: as §1

[19] = tested on: barnyardgrass (Echinochloa crus-galli); assay: as above; conditions: 10 days
In short: as §1

[20] = tested on: blackgrass (Alopecurus myosuroides); assay: as above; conditions: 10 days
In short: as §1

[21] = tested on: green foxtail (Setaria viridis); assay: as above; conditions: 10 days
In short: as §1

soybean (Glycine max) [22] = assay: as above; conditions: 10 days
In short: as §1

[23] = tested on: wheat (Triticum aestivum); assay: as above; conditions: 10 days
In short: as §1

kochia (Bassia scoparia) [24] = assay: as above; conditions: 10 days
In short: as §1

[25] = tested on: ragweed (common ragweed, Ambrosia artemisiifolia); assay: as above; conditions: 10 days
In short: as §1

[26] = tested on: ryegrass, Italian (italian ryegrass, Lolium multiflorum); assay: as above; conditions: 10 days
In short: as §1

[27] = tested on: palmer (palmer amaranth, palmer pigweed, Amaranthus palmeri); assay: as above; conditions: 10 days
In short: as §1

[28] = 62 g ai/ha, postemergence, 10 days, 0 = no effect, 100 = complete control
[29] = Postemergence, 16 g ai/ha, greenhouse 10 days, 0 no effect, 100 complete control
[30] = 62 g ai/ha, 0 = no effect, 100 = complete control

CC1(C(=O)NC2CC=C(C(=O)O)C2)CN(c2cc(Cl)cc(Cl)c2)C(=O)O1 (stereo not shown) [Compound 157]
60: Soybean plant response rating (0-100) (soybean (Glycine max) [7]; [28]) | Kochia plant response rating (0-100) (kochia (Bassia scoparia) [10]; [28]) | Ryegrass, Italian plant response rating (0-100) [12, 28]
40: Barnyardgrass plant response rating (0-100) [4, 28] | Soybean plant response rating (0 to 100 scale) (soybean (Glycine max) [7]; [29])
0: Horseweed plant response rating (0-100) [1, 28] | Horseweed plant response rating (0 to 100 scale) [1, 29] | Oat, Wild plant response rating (0-100) [2, 28] | Oat, Wild plant response rating (0 to 100 scale) [2, 29] | Corn plant response rating (0-100) (corn (Zea mays) [3]; [28]) | Corn plant response rating (0 to 100 scale) (corn (Zea mays) [3]; [29]) | Barnyardgrass plant response rating (0 to 100 scale) [4, 29] | Blackgrass plant response rating (0 to 100 scale) [5, 29] | Foxtail, Green plant response rating (0 to 100 scale) [6, 29] | Wheat plant response rating (0 to 100 scale) [9, 29] | Ragweed plant response rating (0 to 100 scale) [11, 29] | Ryegrass, Italian plant response rating (0 to 100 scale) [12, 29] | Pigweed, Palmer plant response rating (0 to 100 scale) [13, 29] | Plant response rating, Ducksalad (0 to 100 scale, 0 is no effect and 100 is complete control) [14] | Plant response rating, Sedge, Umbrella (0 to 100 scale, 0 is no effect and 100 is complete control) [15] | Plant response rating, Rice (0 to 100 scale, 0 is no effect and 100 is complete control) (rice (Oryza sativa)) | Plant response rating, Barnyardgrass (0 to 100 scale, 0 is no effect and 100 is complete control) [16] | Oat, Wild plant response rating ([17]; 16 g ai/ha, 0 to 100 scale) | Oat, Wild plant response rating (0-100) [17, 30] | Corn plant response rating (corn (Zea mays) [18]; 16 g ai/ha, 0 to 100 scale) | Corn plant response rating (0-100) (corn (Zea mays) [18]; [30]) | Barnyardgrass plant response rating ([19]; 16 g ai/ha, 0 to 100 scale) | Blackgrass plant response rating ([20]; 16 g ai/ha, 0 to 100 scale) | Blackgrass plant response rating (0-100) [20, 30] | Foxtail, Green plant response rating ([21]; 16 g ai/ha, 0 to 100 scale) | Foxtail, Green plant response rating (0-100) [21, 30] | Soybean plant response rating (soybean (Glycine max) [22]; 16 g ai/ha, 0 to 100 scale) | Soybean plant response rating (0-100) (soybean (Glycine max) [22]; [30]) | Wheat plant response rating ([23]; 16 g ai/ha, 0 to 100 scale) | Wheat plant response rating (0-100) [23, 30] | Kochia plant response rating (kochia (Bassia scoparia) [24]; 16 g ai/ha, 0 to 100 scale) | Kochia plant response rating (0-100) (kochia (Bassia scoparia) [24]; [30]) | Ragweed plant response rating ([25]; 16 g ai/ha, 0 to 100 scale) | Ragweed plant response rating (0-100) [25, 30] | Ryegrass, Italian plant response rating ([26]; 16 g ai/ha, 0 to 100 scale) | Ryegrass, Italian plant response rating (0-100) [26, 30] | Pigweed, Palmer plant response rating ([27]; 16 g ai/ha, 0 to 100 scale) | Pigweed, Palmer plant response rating (0-100) [27, 30]
10: Foxtail, Green plant response rating (0-100) [6, 28]
70: Galium plant response rating (0-100) [8, 28]
50: Kochia plant response rating (0 to 100 scale) (kochia (Bassia scoparia) [10]; [29]) | Pigweed, Palmer plant response rating (0-100) [13, 28]
30: Blackgrass plant response rating (0-100) [5, 28] | Galium plant response rating (0 to 100 scale) [8, 29] | Wheat plant response rating (0-100) [9, 28] | Ragweed plant response rating (0-100) [11, 28] | Barnyardgrass plant response rating (0-100) [19, 30]

Source: patent US20260285850A1, “SUBSTITUTED OXAZOLIDINONES AND IMIDAZOLINONES AS HERBICIDES” (FMC CORPORATION, priority 2023, published 2026)
